Among the data in patent US20210395313A1, “PEPTIDE PAC1 ANTAGONISTS” (AMGEN INC., priority 2017, published 2021) are IC50 values, retold here.

The target in one assay is T1, rat PAC1 receptor (Rattus norvegicus, UniProt P32215).
T1 construct: SHSY-5Y (human neuroblastoma cell line) and RG-2 (rat glioma cell line) cells endogenously express human and rat PAC1 receptors, respectively; endogenous in cells; host or cells: RG-2 rat glioma cells
T1 sequence (P32215 20-523): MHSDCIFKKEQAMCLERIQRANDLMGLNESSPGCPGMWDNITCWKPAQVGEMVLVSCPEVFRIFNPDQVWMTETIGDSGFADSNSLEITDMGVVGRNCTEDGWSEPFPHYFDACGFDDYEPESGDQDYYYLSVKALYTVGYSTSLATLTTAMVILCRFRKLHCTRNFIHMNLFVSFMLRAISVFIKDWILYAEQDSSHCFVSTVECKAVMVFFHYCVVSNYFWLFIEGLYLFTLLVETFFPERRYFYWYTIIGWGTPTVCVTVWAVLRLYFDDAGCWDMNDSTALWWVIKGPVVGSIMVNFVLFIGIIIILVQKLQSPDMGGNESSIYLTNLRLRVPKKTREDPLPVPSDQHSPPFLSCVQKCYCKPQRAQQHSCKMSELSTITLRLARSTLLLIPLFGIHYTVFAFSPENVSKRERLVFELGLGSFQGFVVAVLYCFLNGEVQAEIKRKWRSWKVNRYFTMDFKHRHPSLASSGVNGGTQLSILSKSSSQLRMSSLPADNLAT
Nature of the assay: LANCE Ultra cAMP accumulation antagonist assay in RG-2 cells.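 Further: RG-2 rat glioma cells endogenously expressing PAC1, test peptide preincubated 30 min, then PAC1 agonist added at its EC80 for 15 min, cAMP accumulation read by LANCE Ultra.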 Type of assay: cell-based. (In TR-FRET formats the signal depends on donor and acceptor labels being close together.)

Another assay has as its target T2, human PAC1 receptor (Homo sapiens, UniProt P41586).
T2 construct: SHSY-5Y (human neuroblastoma cell line) and RG-2 (rat glioma cell line) cells endogenously express human and rat PAC1 receptors, respectively; endogenous in cells; host or cells: SHSY-5Y human neuroblastoma cells
T2 sequence (P41586 21-468): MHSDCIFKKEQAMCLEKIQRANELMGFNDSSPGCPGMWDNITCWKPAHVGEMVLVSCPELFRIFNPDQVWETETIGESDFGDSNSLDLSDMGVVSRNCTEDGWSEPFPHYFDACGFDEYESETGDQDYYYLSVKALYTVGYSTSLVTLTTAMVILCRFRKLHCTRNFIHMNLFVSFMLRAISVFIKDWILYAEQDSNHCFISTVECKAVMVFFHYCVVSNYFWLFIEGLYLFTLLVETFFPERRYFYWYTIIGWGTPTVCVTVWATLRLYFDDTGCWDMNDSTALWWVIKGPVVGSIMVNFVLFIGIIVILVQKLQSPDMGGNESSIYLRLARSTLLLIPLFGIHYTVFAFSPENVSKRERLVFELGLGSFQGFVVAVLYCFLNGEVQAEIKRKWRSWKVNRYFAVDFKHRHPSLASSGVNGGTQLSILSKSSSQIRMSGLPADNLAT
Nature of the assay: LANCE Ultra cAMP accumulation antagonist assay in SHSY-5Y cells.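 Further: inhibition of cAMP accumulation evoked by PAC1 agonist at its EC80 in SHSY-5Y cells endogenously expressing receptor, 30 min preincubation then 15 min agonist, TR-FRET readout.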 Type of assay: cell-based.

Where a SMILES comes first, the peptide text is derived from it. Bridges are numbered along the chain shown (N, C = ends).

A word on the IC50: it is the concentration needed to halve the response being measured. Low readings indicate inhibition by little substance, high ones a need for much substance.

Description for human PAC1 receptor: In order to determine the potency of peptide antagonists at the PAC1 receptor, functional cAMP accumulation assays using LANCE Ultra cAMP assay kit to measure the agonist and antagonist activity of PAC1 peptides were used. SHSY-5Y (human neuroblastoma cell line) and RG-2 (rat glioma cell line) cells endogenously express human and rat PAC1 receptors, respectively. Agonist activity of PAC1 peptides was tested by incubating with SHSY-5Y at 2,000 cells per well or RG-2 at 5,000 cells per well for 15 minutes at room temperature. PAC1 receptor agonist PACAP38 or maxadilan was included as a positive control. The reaction was stopped by adding detection mixture, europium (Eu) chelate-labeled cAMP tracer and cAMP-specific monoclonal antibodies labeled with the ULight™ dye, to all wells followed by a 60-minute incubation at room temperature. The assay plates were then read on an EnVision instrument at an emission wavelength of 665 and 615 nm and data were analyzed using Genedata Screener or GraphPad Prism software. A similar procedure was used in the antagonist assays by using a fixed concentration of PAC1 agonist. The concentrations of agonists were chosen based on their ECK) values at PAC1 receptors in SHSY-5Y or RG-2 cells. SHSY-5Y or RG-2 cells were added into 96-well half-area white plates. Serially diluted PAC1 peptides at ten concentrations were added and incubated for 30 minutes at room temperature. PAC1 agonist at EC80 concentration was then added and further incubated for 15 minutes at room temperature. The reaction was stopped by adding detection mixture to all wells followed by a 60-minute incubation at room temperature. The assay plates were read and analyzed the same way as that of agonist assay. Cells, agonists, and PAC1 peptides were prepared in freshly made assay buffer (F-12, 0.5 mM IBMX, 0.1 or 0.4% BSA (pH 7.4)). Detection mixture was made by mixing a 1/50 dilution of the Eu-cAMP tracer stock solution in cAMP Detection Buffer and a 1/150 dilution of the ULight-anti-cAMP stock solution in cAMP Detection Buffer. Europium (Eu) chelate-labeled cAMP tracer, cAMP-specific monoclonal antibodies labeled with the ULight™ dye, BSA, and detection buffer were provided in LANCE Ultra cAMP Kit from PerkinElmer

As to `CC[C@H](C)[C@H](NC(=O)[C@H](C)NC(=O)[C@H](CCCCN)NC(=O)[C@H](CCCNC(=N)N)NC(=O)[C@H](Cc1ccccc1)NC(=O)[C@H](CCC(N)=O)NC(=O)[C@@H]1CSSC[C@H](N)C(=O)N[C@@H](CC(=O)O)C(=O)N[C@@H](C)C(=O)N[C@@H]([C@@H](C)O)C(=O)N1)C(=O)N[C@@H](CC(=O)O)C(=O)N[C@@H](CC(=O)O)C(=O)N[C@H]1CSSC[C@@H](C(=O)N[C@@H](CCSC)C(=O)N[C@@H](CCCCN)C(=O)N[C@@H](CCC(N)=O)C(=O)N[C@@H](CCCCN)C(=O)N[C@@H](CCCCN)C(=O)N[C@@H](CCCCN)C(=O)N[C@@H](CCC(=O)O)C(=O)N[C@@H](Cc2ccccc2)C(=O)N[C@@H](CCCCN)C(=O)N[C@@H](C)C(=O)NCC(=O)N[C@@H](Cc2ccc(O)cc2)C(=O)O)NC(=O)[C@H](C)NC(=O)[C@H](CCCCN)NC(=O)[C@H](Cc2ccccc2)NC(=O)[C@H](C(C)C)NC(=O)[C@H](CO)NC(=O)[C@H](CO)NC(=O)[C@H](Cc2c[nH]cn2)NC(=O)[C@H](C)NC(=O)[C@H](CCC(N)=O)NC(=O)[C@H](CCCCN)NC(=O)[C@H](C)NC1=O` [compound 37] (H-CDATCQFRKAIDDCAKQAHSSVFKACMKQKKKEFKAGY-OH; disulfide 1-5, 14-26), the 50% inhibitory concentration (IC50) was 0.01 to 1 nM on rat PAC1 receptor and 1 to 100 nM against human PAC1 receptor.
Taken in the same sequence, the figures for `CC[C@H](C)[C@H](NC(=O)[C@H](C)NC(=O)[C@H](CCCCN)NC(=O)[C@H](CCCNC(=N)N)NC(=O)[C@H](Cc1ccccc1)NC(=O)[C@H](CCC(N)=O)NC(=O)[C@@H]1CSSC[C@H](N)C(=O)N[C@@H](CC(=O)O)C(=O)N[C@@H](C)C(=O)N[C@@H]([C@@H](C)O)C(=O)N1)C(=O)N[C@@H](CC(=O)O)C(=O)N[C@@H](CC(=O)O)C(=O)N[C@H]1CSSC[C@@H](C(=O)N[C@@H](CCSC)C(=O)N[C@@H](CCCCN)C(=O)N[C@@H](CCC(N)=O)C(=O)N[C@@H](CCCCN)C(=O)N[C@@H](CCCCN)C(=O)N[C@@H](CCCCN)C(=O)N[C@@H](CCC(=O)O)C(=O)N[C@@H](Cc2c[nH]c3ccccc23)C(=O)N[C@@H](CCCCN)C(=O)N[C@@H](C)C(=O)NCC(N)=O)NC(=O)[C@H](C)NC(=O)[C@H](CCCCN)NC(=O)[C@H](Cc2ccccc2)NC(=O)[C@H](C(C)C)NC(=O)[C@H](CO)NC(=O)[C@H](CO)NC(=O)[C@H](Cc2c[nH]cn2)NC(=O)[C@H](Cc2c[nH]c3ccccc23)NC(=O)[C@H](CO)NC(=O)[C@H](CCCNC(=N)N)NC(=O)[C@H](Cc2ccc(O)cc2)NC(=O)[C@H](Cc2ccc(O)cc2)NC1=O` [compound 61] (H-CDATCQFRKAIDDCYYRSWHSSVFKACMKQKKKEWKAG-NH2; disulfide 1-5, 14-27) were 0.01 to 1 nM and 0.01 to 1 nM.
Taken in the same sequence, the figures for `CC[C@H](C)[C@H](NC(=O)[C@H](C)NC(=O)[C@H](CCCCN)NC(=O)[C@H](CCCNC(=N)N)NC(=O)[C@H](Cc1ccccc1)NC(=O)[C@H](CCC(N)=O)NC(=O)[C@@H]1CSSC[C@H](N)C(=O)N[C@@H](CC(=O)O)C(=O)N[C@@H](C)C(=O)N[C@@H]([C@@H](C)O)C(=O)N1)C(=O)N[C@@H](CC(=O)O)C(=O)N[C@@H](CC(=O)O)C(=O)N[C@H]1CSSC[C@@H](C(=O)N[C@@H](CCSC)C(=O)N[C@@H](CCCCN)C(=O)N[C@@H](CCC(N)=O)C(=O)N[C@@H](CCCCN)C(=O)N[C@@H](CCCCN)C(=O)N[C@@H](CCCCN)C(=O)N[C@@H](CCC(=O)O)C(=O)N[C@@H](Cc2ccccc2)C(=O)N[C@@H](CCCCN)C(=O)N[C@@H](C)C(=O)NCC(N)=O)NC(=O)[C@H](C)NC(=O)[C@H](CCCCN)NC(=O)[C@H](Cc2ccccc2)NC(=O)[C@H](CO)NC(=O)[C@H](CO)NC(=O)[C@H](Cc2c[nH]cn2)NC(=O)[C@H](Cc2c[nH]c3ccccc23)NC(=O)[C@H](CO)NC(=O)[C@H](CCCNC(=N)N)NC(=O)[C@H](Cc2ccc(O)cc2)NC(=O)[C@H](Cc2ccc(O)cc2)NC1=O` [compound 63] (H-CDATCQFRKAIDDCYYRSWHSSFKACMKQKKKEFKAG-NH2; disulfide 1-5, 14-26) were 0.01 to 1 nM and 0.01 to 1 nM.
Consider `CC[C@H](C)[C@H](NC(=O)[C@H](C)NC(=O)[C@H](CCCCN)NC(=O)[C@H](CCCNC(=N)N)NC(=O)[C@H](Cc1ccccc1)NC(=O)[C@H](CCC(N)=O)NC(=O)[C@@H]1CSSC[C@H](N)C(=O)N[C@@H](CC(=O)O)C(=O)N[C@@H](C)C(=O)N[C@@H]([C@@H](C)O)C(=O)N1)C(=O)N[C@@H](CC(=O)O)C(=O)N[C@@H](CC(=O)O)C(=O)N[C@H]1CSSC[C@@H](C(=O)N[C@@H](CCSC)C(=O)N[C@@H](CCCCN)C(=O)N[C@@H](CCC(N)=O)C(=O)N[C@@H](CCCCN)C(=O)N[C@@H](CCCCN)C(=O)N[C@@H](CCCCN)C(=O)N[C@@H](CCC(=O)O)C(=O)N[C@@H](Cc2c[nH]c3ccccc23)C(=O)N[C@@H](CCCCN)C(=O)N[C@@H](C)C(=O)NCC(=O)N[C@@H](Cc2c[nH]cn2)C(=O)O)NC(=O)[C@H](C)NC(=O)[C@H](CCCCN)NC(=O)[C@H](Cc2ccccc2)NC(=O)[C@H](C(C)C)NC(=O)[C@H](CO)NC(=O)[C@H](CO)NC(=O)[C@H](Cc2c[nH]cn2)NC(=O)[C@H](Cc2c[nH]c3ccccc23)NC(=O)[C@H](CO)NC(=O)[C@H](CCCNC(=N)N)NC(=O)[C@H](Cc2ccc(O)cc2)NC(=O)[C@H](Cc2ccc(O)cc2)NC1=O` [compound 72] (H-CDATCQFRKAIDDCYYRSWHSSVFKACMKQKKKEWKAGH-OH; disulfide 1-5, 14-27), for which the IC50 against rat PAC1 receptor and at human PAC1 receptor was 0.01 to 1 nM throughout.
Regarding `CC[C@H](C)[C@H](NC(=O)[C@H](C)NC(=O)[C@H](CCCCN)NC(=O)[C@H](CCCNC(=N)N)NC(=O)[C@H](Cc1ccccc1)NC(=O)[C@H](CCC(N)=O)NC(=O)[C@@H]1CSSC[C@H](N)C(=O)N[C@@H](CC(=O)O)C(=O)N[C@@H](C)C(=O)N[C@@H]([C@@H](C)O)C(=O)N1)C(=O)N[C@@H](CC(=O)O)C(=O)N[C@@H](CC(=O)O)C(=O)N[C@H]1CSSC[C@@H](C(=O)N[C@@H](CCSC)C(=O)N[C@@H](CCCCN)C(=O)N[C@@H](CCC(N)=O)C(=O)N[C@@H](CCCCN)C(=O)N[C@@H](CCCCN)C(=O)N[C@@H](CCCCN)C(=O)N[C@@H](CCC(=O)O)C(=O)N[C@@H](Cc2c[nH]c3ccccc23)C(=O)N[C@@H](CCCCN)C(=O)N[C@@H](C)C(=O)NCC(=O)N[C@@H](Cc2c[nH]cn2)C(=O)O)NC(=O)[C@H](C)NC(=O)[C@H](CCCCN)NC(=O)[C@H](Cc2ccccc2)NC(=O)[C@H](C(C)C)NC(=O)[C@H](CO)NC(=O)[C@H](CO)NC(=O)[C@H](Cc2c[nH]cn2)NC(=O)[C@H](Cc2c[nH]cn2)NC(=O)[C@H](C)NC(=O)[C@H](CCC(N)=O)NC(=O)[C@H](CCCNC(=N)N)NC(=O)[C@H](C(C)C)NC1=O` [compound 75] (H-CDATCQFRKAIDDCVRQAHHSSVFKACMKQKKKEWKAGH-OH; disulfide 1-5, 14-27), the IC50 at rat PAC1 receptor was below 0.01 nM; against human PAC1 receptor, 0.01 to 1 nM.
Taken in the same sequence, the figures for `CC[C@H](C)[C@H](NC(=O)[C@H](C)NC(=O)[C@H](CCCCN)NC(=O)[C@H](CCCNC(=N)N)NC(=O)[C@H](Cc1ccccc1)NC(=O)[C@H](CCC(N)=O)NC(=O)[C@@H]1CSSC[C@H](N)C(=O)N[C@@H](CC(=O)O)C(=O)N[C@@H](C)C(=O)N[C@@H]([C@@H](C)O)C(=O)N1)C(=O)N[C@@H](CC(=O)O)C(=O)N[C@@H](CC(=O)O)C(=O)N[C@H]1CSSC[C@@H](C(=O)N[C@@H](CCSC)C(=O)N[C@@H](CCCCN)C(=O)N[C@@H](CCC(N)=O)C(=O)N[C@@H](CCCCN)C(=O)N[C@@H](CCCCN)C(=O)N[C@@H](CCCCN)C(=O)N[C@@H](CCC(=O)O)C(=O)N[C@@H](Cc2ccccc2)C(=O)N[C@@H](CCCCN)C(N)=O)NC(=O)[C@H](CCC(=O)O)NC(=O)[C@H](CCCCN)NC(=O)[C@H](Cc2ccccc2)NC(=O)[C@H](CO)NC(=O)[C@H](CC(N)=O)NC(=O)[C@H](CO)NC(=O)[C@H](Cc2c[nH]cn2)NC(=O)[C@H](Cc2c[nH]cn2)NC(=O)[C@H](C)NC(=O)[C@H](CCC(N)=O)NC(=O)[C@H](CCCCN)NC(=O)[C@H](CC(=O)O)NC1=O` [compound 222] were 1 to 100 nM and below 0.01 nM.
